Data reported in PMC11474193, “A cub and sushi domain-containing protein with esterase-like activity confers insecticide resistance in the Indian malaria vector Anopheles stephensi” (The Journal of Biological Chemistry, 2024).

Assays:
[1] = system: T1, CUB and Sushi Domain-containing Insecticide Resistance (CSDIR) protein (XP_035915664.1); assay: SPR, immobilized CSDIR913-1190, steady-state fit; assay type: binding, Anopheles stephensi
T1 construct: CSDIR^913-1190 (C-terminal CUB and Sushi domains, recombinant in E. coli)

[2] = system: T1, CUB and Sushi Domain-containing Insecticide Resistance (CSDIR) protein (XP_035915664.1); assay: SPR, steady-state fit; degradation by the protein also shown by UPLC; assay type: binding, Anopheles stephensi

CCOC(=O)CC(SP(=S)(OC)OC)C(=O)OCC (centres unmarked) [malathion]
Kd [1]: 6.43 µM

CC1(C)[C@H](C(=O)O[C@H](C#N)c2cccc(Oc3ccccc3)c2)[C@@H]1C=C(Br)Br [deltamethrin]
Kd [2]: 46.7 µM
